Legend:
[1] = test system: Can preQ1-II riboswitch WT (RNA, riboswitch) UGUGGUUCGCAACCAUCCCACAUAAAAAAACUAG; test: X-ray crystallography, 2.60 Å; settings: 80 mM K+ (KCl), 12 mM Na+ (NaCl), 2 mM hexammine cobalt(III); 40 mM sodium cacodylate pH 5.5, 30% MPD, 20 °C; folded with Mg2+
[2] = test system: Can preQ1-II riboswitch WT (RNA, riboswitch) UGUGGUUCGCAACCAUCCCACAUAAAAAAACUAG; test: ITC (PEAQ-ITC, single-sites model); settings: 100 mM Na+ (NaCl), 4 mM Mg2+; 50 mM Na-HEPES pH 7.0, 25 °C; apparent; average over two cooperative sites
[3] = test system: Hin riboswitch WT (RNA, riboswitch) GUAGUUCGCAAACCUCCUACAAUAAAAAACUAG; test: ITC (PEAQ-ITC, single-sites model); settings: 100 mM Na+ (NaCl), 4 mM Mg2+; 50 mM Na-HEPES pH 7.0, 25 °C; apparent; average over two cooperative sites
[4] = test system: Ngo riboswitch WT (RNA, riboswitch) CGCGGUUCGCAAACCUCCCGCGUUACCAAAACUAG; test: ITC (PEAQ-ITC, single-sites model); settings: 100 mM Na+ (NaCl), 4 mM Mg2+; 50 mM Na-HEPES pH 7.0, 25 °C; apparent; average over two cooperative sites
[5] = test system: Can preQ1-II riboswitch C17U (RNA, riboswitch) UGUGGUUCGCAACCAUUCCACAUAAAAAAACUAG; test: ITC (VP-ITC, two interdependent non-equivalent sites model); settings: 100 mM Na+ (NaCl), 4 mM Mg2+; 50 mM Na-HEPES pH 7.0, 25 °C; macroscopic, second binding event (KD1 3.13 µM)
[6] = test system: Can preQ1-II riboswitch C31U (RNA, riboswitch) UGUGGUUCGCAACCAUCCCACAUAAAAAAAUUAG; test: as above; settings: 100 mM Na+ (NaCl), 4 mM Mg2+; 50 mM Na-HEPES pH 7.0, 25 °C; macroscopic, first binding event (KD2 10.26 µM)

binding [1]: yes
KD, app [2]: 32.0 ± 2.0 nM
KD, app [3]: 52.9 ± 0.2 nM
KD, app [4]: 50.5 ± 1.3 nM
KD2 [5]: 1.30 µM
KD1 [6]: 6.64 µM
SMILES: NCc1c[nH]c2nc(N)[nH]c(=O)c12
